In patent publication US11185522B2, “Cilastatin for use in the treatment of sepsis” (FUNDACIÓN PARA LA INVESTIGACIÓN BIOMÉDICA DEL HOSPITAL …, priority 2016, dated 2021):
“And” between values parts separate entries of the source, which are not always exact repeats. Equal values may be shown once.

Key:
FasL = settings: septic rats; Western blot
Experimental: (§1) Sepsis was developed by cecal ligation puncture model (CLP) as described in several papers (Li G et al, Clin Exp Pharmacol Physiol. 2014; 41(7):459-68, Seija M et al, Shock. 2012; 38(4):403-10). Animals were anesthetized with ketamine (Ketolar 50 mg/ml) 90 mg/kg intraperitoneal (ip) and diazepam (Valium 10 mg/2 mL) 5 mg/kg ip. Under sterile conditions a 3-cm midline laparotomy was performed to allow exposure of the cecum, and a 4-0 silk ligature was placed 0.75 cm from the cecal tip. It was punctured once with a 14-gauge needle. A second ligature was placed 1.5 cm proximal to the first one and distal to the ileocecal valve to avoid intestinal obstruction. Three punctures were made in the cecum between the two ligatures with a 16-gauge needle. The cecum was gently squeezed until a 1-mm column of fecal material was exteriorized. The bowel was then returned to the abdomen and the incision was closed in layers. A sham operation (laparotomy and cecal exposure without any other manipulation) was performed as control. […]
(§2) Western blotting was performed as described previously (Humanes B et al, Kidney International. 2012; 82(6):652-663). […] All signals were visualized with an Alliance 4.7 (Uvitec, Cambridge, UK) and analyzed by densitometric scanning (ImageJ; http://rsbweb.nih.gov/ij/index.html). […]

cleaved caspase-8 = settings: septic rats; Western blot
Experimental: as §1, §2

4-HNE = settings: septic rats
Experimental: (§3) Sepsis was developed by cecal ligation puncture model (CLP) as described in several papers (Li G et al, Clin Exp Pharmacol Physiol. 2014; 41(7):459-68, Seija M et al, Shock. 2012; 38(4):403-10). Animals were anesthetized with ketamine (Ketolar 50 mg/ml) 90 mg/kg intraperitoneal (ip) and diazepam (Valium 10 mg/2 mL) 5 mg/kg ip. Under sterile conditions a 3-cm midline laparotomy was performed to allow exposure of the cecum, and a 4-0 silk ligature was placed 0.75 cm from the cecal tip. It was punctured once with a 14-gauge needle. A second ligature was placed 1.5 cm proximal to the first one and distal to the ileocecal valve to avoid intestinal obstruction. Three punctures were made in the cecum between the two ligatures with a 16-gauge needle. The cecum was gently squeezed until a 1-mm column of fecal material was exteriorized. The bowel was then returned to the abdomen and the incision was closed in layers. A sham operation (laparotomy and cecal exposure without any other manipulation) was performed as control. At the end of the operation, all rats were resuscitated with normal saline (50 ml/kg body weight) subcutaneously in a single dose and analgesic treatment with buprenorphine (buprex 0.3 mg/ml) 0.1 mg/kg every 12 hours immediately after surgery and until the day of killing.
(§4) Immunohistochemistry was carried out as described previously (Humanes B et al, Kidney International. 2012; 82(6):652-663). The primary antibodies used were polyclonal goat anti-rat TIM-1/KIM-1/HAVCR (1:20; R&D systems); anti-cleaved caspase-3 (Asp175) (1:50; Cell Signaling Technology, Inc., Beverly, Mass.) mouse monoclonal anti-4-HNE (1:75; Oxis International Inc., Foster City, Calif.); polyclonal rabbit anti-Cu/Zn SOD (1:1000; Assay Designs, Stressgen, Ann Arbor, Mich., USA); monoclonal mouse anti-CD68 (monocyte/macrophage, 1:125, Abd Serotec, Oxford, UK); polyclonal goat anti-VCAM-1 (1:100; Santa Cruz Biotechology, Inc., Beverly, Mass., USA); polyclonal rabbit anti-TGFβ1 antibody (1:100; Santa Cruz Biotechnology); monoclonal mouse anti-ICAM-1 (1:100; Santa Cruz). […] The surface area labeled by antibodies was evaluated by quantitative image analysis as previously described (Lazaro A. et al. Antiox Redox Signal. 2005; 7:1285-1293). In brief, the percentage of the stained area was calculated as the ratio of suitable binary thresholded image and the total field area. For each sample, the mean staining area was obtained by analysis of the entire sample.
(§5) In the treatment groups, the rats were treated with cilastatin 150 mg/kg ip immediately and at 24 h after induction of sepsis or the sham-operation. Cilastatin was substituted by vehicle (0.5 mL/100 g) in the non-treatment groups. […] All animals were then placed in the metabolic cages for 24-h urine collection.
(§6) Forty-eight (48) hours after the sepsis-induction/sham-operation, all rats were anesthetized with ketamine (10 mg/kg) and diazepam (4 mg/kg) and killed. Blood samples were collected by insertion of a cannula into the abdominal aorta, and serum was isolated by centrifugation in ACUETTE® Z Serum Sep Clot Activator tubes (Greiner bio-one), at 2000 rpm for 15 h at 4° C., and then stored at −80° C. until use. The kidneys were perfused with cold saline and quickly removed. Kidney samples were snap-frozen in liquid nitrogen and kept at −80° C. or fixed in 4% paraformaldehyde (24 h) and paraffin-embedded for the different studies.

VCAM-1 = settings: septic rats; immunohistochemistry
Experimental: as §3, §4, §5, §6

ICAM-1 = settings: septic rats; immunohistochemistry
Experimental: as §3, §4, §5, §6

TGFβ = settings: septic animals; immunohistochemistry
Experimental: as §3, §4, §5, §6

CD68 = settings: cilastatin-treated septic rats compared to the sepsis group
Experimental: as §3, §4, §5, §6

cleaved caspase-3 = settings: septic rats; immunohistochemistry and Western blot of the renal cortex
Experimental: as §3
(§7) Immunohistochemistry was carried out as described previously (Humanes B et al, Kidney International. 2012; 82(6):652-663). […] The surface area labeled by antibodies was evaluated by quantitative image analysis as previously described (Lazaro A. et al. Antiox Redox Signal. 2005; 7:1285-1293). In brief, the percentage of the stained area was calculated as the ratio of suitable binary thresholded image and the total field area. […]
as §2

KIM-1 = settings: sepsis+cil vs control (SHAM) levels; immunohistochemistry and Western blot; 48 h
Experimental: as §3, §7, §2

Cu/Zn SOD = settings: septic rats; immunohistochemistry and Western blotting
Experimental: as §3, §7, §2

CLP-induced sepsis rats [1] = test system: CLP-induced sepsis rats
Experimental: as §3

[2] = septic rats
Experimental: as §3, §5
as §6, with “Kidney samples were snap-frozen in liquid nitrogen and kept at −80° C. or fixed in 4% paraformaldehyde (24 h) and paraffin-embedded for the different studies.” left out

CLP-induced sepsis rats [3] = settings: day 2 after CLP surgery
Experimental: as §3, §5
as §6, with “Kidney samples were snap-frozen in liquid nitrogen and kept at −80° C. or fixed in 4% paraformaldehyde (24 h) and paraffin-embedded for the different studies.” left out

[4] = test system: kidney tubular cell apoptosis; settings: kidneys of septic rats
Experimental: as §3, §5
as §6, with “Kidney samples were snap-frozen in liquid nitrogen and kept at −80° C. or fixed in 4% paraformaldehyde (24 h) and paraffin-embedded for the different studies.” left out

CLP-induced sepsis rats [5] = test system: CLP-induced sepsis rats; remark: listed apart in the source
Experimental: as §3
Serum creatinine, blood urea nitrogen levels (BUN), proteins and other parameters were measured using the Dimension RxL autoanalyzer (Dade-Behring, Siemens, Eschborn, Germany). The glomerular filtration rate was calculated using the creatinine clearance rate.
The animals were randomly allocated into four groups (n=10 in each group): • i. sham-operated group, • ii. CLP group, • iii. sham-operated group+cilastatin, and • iv. CLP group+cilastatin.
as §5, §6

[6] = sepsis+cil group, 48 hours after induction of sepsis, cilastatin 150 mg/kg ip immediately and at 24 h, mean±s.e.m.

CC1(C)C[C@@H]1C(=O)N/C(=C\CCCCSC[C@H](N)C(=O)O)C(=O)O [cilastatin, (Z)-7-[(2R)-2-Amino-3-hydroxy-3-oxopropyl]sulfanyl-2-{[(1S)-2,2-dimethylcyclopropanecarbonyl]amino}hept-2-enoic acid]
Renal cortex FasL (FasL): attenuated | Renal cortex cleaved caspase-8 (cleaved caspase-8): attenuated | Sepsis-enhanced 4-HNE staining in the kidneys (4-HNE): completely prevented | Sepsis-induced increase of VCAM-1 expression (VCAM-1): significantly reduced | Sepsis-induced increase of ICAM-1 expression (ICAM-1): significantly reduced | TGFβ1 levels in renal tissue (TGFβ): significantly decreased | CD68 positive cells in renal samples (CD68): fewer | Elevated caspase-3 levels (cleaved caspase-3): significantly lowered | KIM-1 protein level (KIM-1): partially restored | Cu/Zn SOD expression in renal cortex (Cu/Zn SOD): able to restore its expression | Decrease in mortality (CLP-induced sepsis rats [1]; cilastatin vs CLP plus vehicle, 48 h after CLP): 33% and 30% | Mortality (%) (CLP-induced sepsis rats [1]; sepsis+cil group, monitored for 48 h after CLP, cilastatin 150 mg/kg immediately and at 24 h, 6 rats per group, sepsis vehicle group 83%): 50% | Antioxidant capacity in urine [2]: improved | Semi-quantitative renal injury score (CLP-induced sepsis rats [3]): reduced the renal injury score | Number of TUNEL-positive cells [4]: significantly decreased | Protein excretion (CLP-induced sepsis rats [5]; CLP group with cilastatin vs CLP group, 48 h): significantly reduced | Proteinuria (CLP-induced sepsis rats [5]; sepsis+cil group (fourth value, group not labelled), 48 hours, cilastatin 150 mg/kg ip, mean±s.e.m.): 1889±347 | Blood urea nitrogen (CLP-induced sepsis rats [5]; [6]): 75±7 | Serum creatinine (CLP-induced sepsis rats [5]; [6]): 0.38±0.02 | Glomerular filtration rate (CLP-induced sepsis rats [5]; sepsis+cil group, 48 hours, calculated using the creatinine clearance rate, cilastatin 150 mg/kg ip, mean±s.e.m.): 0.45±0.07 | Sepsis-induced dysfunctions: serum BUN and creatinine increase, glomerular filtration rate decrease (CLP-induced sepsis rats [5]; septic animals, cilastatin 150 mg/kg ip, 48 h): totally prevented
